Data published in ChEMBL document CHEMBL6127107, “Oleanolic acid derivatives against drug-resistant bacteria and fungi by multi-targets to avoid drug resistance” (Eur J Med Chem, 2024).
≈ marks a conversion by molar mass, not a printed value.

Key:
[1] = system: Candida albicans; test: Antimicrobial activity against fluconazole-resistant Candida albicans; format: functional
[2] = system: Staphylococcus aureus; test: Antimicrobial activity against methicillin-resistant Staphylococcus aureus 003; format: functional
[3] = system: Escherichia coli; test: Antimicrobial activity against Escherichia coli; format: functional
[4] = system: Staphylococcus aureus; test: Antimicrobial activity against Staphylococcus aureus 29; format: functional
[5] = system: Staphylococcus aureus; test: Antimicrobial activity against methicillin-resistant Staphylococcus aureus 011; format: functional
[6] = Selectivity index, ratio of HC50 for hemolytic activity against Mianyang red blood cells (unknown origin) to MIC for antimicrobial activity against methicillin resistant Staphylococcus aureus 003; format: toxicity, cell-based, RBC; conditions: read-out: Selectivity Index
[7] = Hemolytic activity against Mianyang red blood cells (unknown origin); format: toxicity, cell-based, RBC
[8] = system: Enterococcus faecalis; test: Antimicrobial activity against vancomycin resistant Enterococcus faecalis ATCC 51299; format: functional
[9] = system: Pseudomonas aeruginosa; test: Antimicrobial activity against Pseudomonas aeruginosa; format: functional
[10] = system: Staphylococcus aureus; test: Antimicrobial activity against Staphylococcus aureus 31; format: functional
[11] = system: Staphylococcus aureus; test: Antimicrobial activity against Staphylococcus aureus 10; format: functional

SMILES	MIC [1]	MIC [2]	MIC [3]	MIC [4]	MIC [5]	selectivity ratio [6]	HC50 [7]	MIC [8]	MIC [9]	MIC [10]	MIC [11]
CC(=O)O[C@H]1CC[C@]2(C)[C@H]3CC=C4[C@@H]5CC(C)(C)CC[C@]5(C(=O)NCCCCCCCCN)CC[C@@]4(C)[C@]3(C)CC[C@H]2C1(C)C	64 µg/mL (≈ 102 µM)	8 µg/mL (≈ 12.8 µM)	> 64 µg/mL	8 µg/mL (≈ 12.8 µM)	4 µg/mL (≈ 6.4 µM)	7.53	40.2 µg/mL	16 µg/mL (≈ 25.6 µM)	> 64 µg/mL	32 µg/mL (≈ 51.2 µM)	8 µg/mL (≈ 12.8 µM)
CC(=O)O[C@H]1CC[C@]2(C)[C@H]3CC=C4[C@@H]5CC(C)(C)CC[C@]5(C(=O)NCCCN)CC[C@@]4(C)[C@]3(C)CC[C@H]2C1(C)C	2 µg/mL (≈ 3.6 µM)	2 µg/mL (≈ 3.6 µM)	> 64 µg/mL	4 µg/mL (≈ 7.21 µM)	2 µg/mL (≈ 3.6 µM)	39.2	78.5 µg/mL	4 µg/mL (≈ 7.21 µM)	> 64 µg/mL	8 µg/mL (≈ 14.4 µM)	4 µg/mL (≈ 7.21 µM)
CC1(C)CC[C@]2(C(=O)O)CC[C@]3(C)C(=CC[C@@H]4[C@@]5(C)CC[C@H](OCC(O)CCCCCCCCNC(=N)N)C(C)(C)[C@@H]5CC[C@]43C)[C@@H]2C1 (stereo not given in full)	16 µg/mL (≈ 23.9 µM)	8 µg/mL (≈ 11.9 µM)	> 64 µg/mL	8 µg/mL (≈ 11.9 µM)	4 µg/mL (≈ 5.97 µM)	72.1	577 µg/mL	8 µg/mL (≈ 11.9 µM)	> 64 µg/mL	16 µg/mL (≈ 23.9 µM)	8 µg/mL (≈ 11.9 µM)
CC(=O)O[C@H]1CC[C@]2(C)[C@H]3CC=C4[C@@H]5CC(C)(C)CC[C@]5(C(=O)NCCCCCCCCNC(=N)N)CC[C@@]4(C)[C@]3(C)CC[C@H]2C1(C)C	16 µg/mL (≈ 24 µM)	4 µg/mL (≈ 6 µM)	> 64 µg/mL	4 µg/mL (≈ 6 µM)	2 µg/mL (≈ 3 µM)	57.9	232 µg/mL	8 µg/mL (≈ 12 µM)	> 64 µg/mL	16 µg/mL (≈ 24 µM)	4 µg/mL (≈ 6 µM)
CC1(C)CC[C@]2(C(=O)O)CC[C@]3(C)C(=CC[C@@H]4[C@@]5(C)CC[C@H](OCC(O)CCCN)C(C)(C)[C@@H]5CC[C@]43C)[C@@H]2C1 (stereo not given in full)	4 µg/mL (≈ 7.17 µM)	4 µg/mL (≈ 7.17 µM)	> 64 µg/mL	2 µg/mL (≈ 3.59 µM)	2 µg/mL (≈ 3.59 µM)	8.01	32 µg/mL	8 µg/mL (≈ 14.3 µM)	> 64 µg/mL	8 µg/mL (≈ 14.3 µM)	4 µg/mL (≈ 7.17 µM)
